In patent publication US11723359B2, “Disposable antimicrobial wipes and methods of making” (Ecolab USA Inc., priority 2015, dated 2023):

Experiments:
[1] = pH of citric acid and acetic acid at varying concentrations; assay type: physicochemical
Experimental: Wipes were prepared as described in Example 1 above. Citric acid at concentrations of Oppm, 500 ppm, 1000 ppm, 2000 and 4000 ppm were separately applied to the Tencel® substrates along with Bardac 205 quaternary ammonium. The wipes were prepared in duplicate. The organic acid and quaternary ammonium chemicals were added to the textile simultaneously. The following is a table showing the pH of citric acid and acetic acid at varying concentrations: […]

[2] = Squeeze method: expression of quaternary ammonium from treated Tencel wipes, quantified by HPLC; assay type: physicochemical; settings: Example 3, FIG. 4, citric acid 0, 500, 1000, 2000, 4000 ppm with Bardac 205 on Tencel, 24 hours soak
Experimental: Wipes were prepared as described in Example 1 above. […] The wipes were prepared in duplicate. The organic acid and quaternary ammonium chemicals were added to the textile simultaneously.

Compound | pH ([1]; concentration 10 ppm) | pH ([1]; concentration 50 ppm) | pH ([1]; concentration 500 ppm) | release of dimethyl benzyl ammonium chloride from wipe [2]
CC(=O)O [Acetic Acid, acetic acid] | 2.69 | 2.62 | 2.56 | –
alkyl dimethyl benzyl ammonium chloride | – | – | – | As the citric acid concentration increased, the amount of quaternary ammonium released also increased
O=C(O)CC(O)(CC(=O)O)C(=O)O [Citric Acid, citric acid] | 2.48 | 2.58 | 2.65 | –
